“And” between values parts separate entries of the source, which are not always exact repeats. Equal entries are not always repeated. Marks after values point to notes of the source that are not given here.
What was measured:
[1] = test system: DNFB-induced mouse ear edema; experiment: DNFB-induced mouse ear edema; format: in vivo; settings: for Increasing ratio of auricle thickness: 1 hour after reaction induction
Method: Anti-DNP-IgE antibody (3 μg/body) was administered from the caudal vein of each of female Balb/c mice of 7 weeks of age, and the reaction was induced by applying 25 μl of a 0.15% DNFB-containing acetone:olive oil (3:1) mixed solution (hereinafter referred to as “antigen”) to each of both sides of the left and right auricles 24 hours after the administration. Each compound to be tested was administered orally or intravenously 1 hour before the reaction induction. Before the reaction induction and 1 hour after the reaction induction, auricle thickness was measured using a dial sickness gage, and the average value of the left and right auricle thicknesses was used as the measured value at respective time. The value was shown by the increasing ratio of the auricle thickness from before the reaction induction. In Table 9, treatments in each group are as follows.
Vehicle: anti-DNP-IgE antibody administration+vehicle application+vehicle administration
Control: anti-DNP-IgE antibody administration+antigen application+vehicle administration
Compound (1): anti-DNP-IgE antibody administration+antigen application+Compound (1) administration

[2] = test system: Compound 48/80-induced scratching behavior; experiment: Mouse Compound 48/80-induced itch model; format: in vivo; settings: for The number of times of scratching: 20 minutes after injection of Compound 48/80
Method: This test was carried out in accordance with the method of Kubo et al. (Michinori Kubo, Hideaki Matsuda, Takeshi Itadaki, Yasuko Ido and Masayuki Yoshikawa, Studies on herb medicine and jifushi (first report), Anti-itching activity of 70% ethanol extract of jifushi and screening of effective component, Journal of the Pharmaceutical Society of Japan, 117(4), 193-201, 1997). Specifically, 0.1 ml of physiological saline containing Compound 48/80 (manufactured by Sigma Chemical Company) (100 μg) was administered subcutaneously into the dorsal part of each male ddy mouse of 6 to 7 weeks of age to induce scratching behavior. The scratching behavior was judged by measuring the number of times of scratching for 20 minutes immediately after the injection, by setting the behavior of each mouse to scratch the injected part with a hind leg for 1 second or more as one. Each compound to be tested was administered intravenously 1 hour before the induction.

[3] = test system: IL-2 production by spleen cells; experiment: In vitro OVA-stimulated IL-2 production by spleen cells from OVA-sensitized mice; format: cell-based, mouse; settings: for Amount of IL-2: spleen cells, 1 mg/ml OVA, 96 hours, ELISA
Method: (§1) OVA-sensitized animals were prepared in accordance with the method of Nagai et al. (the method described in Example 2). Specifically, 0.5 ml of physiological saline containing 50 μg of OVA and 1 mg of aluminum hydroxide gel as adjuvant was injected twice at 12 day interval into the abdominal cavity of each of male Balb/c mice of 7 weeks of age for active sensitization. After 22, 26 and 30 days of the initial sensitization, each animal was forced to inhale 1% OVA solution for 30 minutes using an ultrasonic nebulizer. After 8 hours of the final antigen inhalation, the spleen was collected to prepare spleen cells. The spleen cells were cultured for 96 hours in the presence of 1 mg/ml of OVA, and the cytokine released in the culture supernatant was determined by ELISA method. Each of the compounds to be tested was added to a final concentration of 0.3, 1, 3, 10 or 30 μM simultaneously with OVA.

[4] = test system: eosinophils infiltration in BALF; experiment: BALF eosinophils infiltration in mouse allergic airway inflammation model; format: in vivo
Method: (§2) The test was carried out in accordance with the method of Nagai et al. (see H. Nagai, H. Takeda, S. Yamaguchi, H. Tanaka, A. Matsuo and N. Inagaki, “The effect of thromboxane A2 receptor antagonist BAY-u-3405 on experimental allergic reactions”, Prostaglandins, 50, 75-87, 1995). Specifically, 0.5 ml of physiological saline containing 50 μg of OVA and 1 mg of aluminum hydroxide gel as adjuvant was injected twice at 12 day interval into the abdominal cavity of each of male Balb/c mice of 7 weeks of age for active sensitization. After 22, 26 and 30 days of the initial sensitization, each animal was forced to inhale 1% OVA solution for 30 minutes using an ultrasonic nebulizer to prepare a mouse allergic airway inflammation model. Total blood and BALF were collected 8 hours after the final antigen inhalation. The collected blood was allowed to stand overnight at room temperature, and then centrifuged at 300 rpm for 15 minutes, and the light yellow transparent fraction separated into the supematant was used as an antiserum. The IgE antibody titer in the antiserum was measured by 24 hours' heterogeneous (rat) PCA. On the other hand, the collected BALF supernatant was used as a sample for cytokine measurement, and the cell pellets after preparation were counted as an index of the infiltration of inflammatory cells. Each compound to be tested was continuously administered 5 days starting from the day before each sensitization and 10 days starting from the day before inhalation, at a dose of 10, 30 or 100 mg/kg in the case of oral administration or 10 mg/kg in the case of intraperitoneal or intravenous injection. Results of the measurement of IgE antibody titer in serum and amount of IL-5 and the number of eosinophils in BALF are shown in Tables 10, 11 and 12, respectively. The treatments in each group shown in each table are as follows.
(§3) Physiological saline: physiological saline stimulation+vehicle administration
(§4) Control: OVA stimulation+vehicle administration
(§5) Compound (1): OVA stimulation+Compound (1) administration

[5] = test system: IFN-γ production by spleen cells; experiment: In vitro OVA-stimulated IFN-γ production by spleen cells from OVA-sensitized mice; format: cell-based, mouse; settings: for Amount of IFN-γ: Table 15, OVA-stimulated IFN-γ production, spleen cells, 96 hours, ELISA
Method: as §1

[6] = test system: IgE antibody production; experiment: Serum IgE antibody production in mouse allergic airway inflammation model; format: in vivo; settings: 24 hours' heterogeneous (rat) PCA
Method: as §2, §3, §4, §5

[7] = test system: IL-5 production in BALF; experiment: BALF IL-5 production in mouse allergic airway inflammation model; format: in vivo
Method: as §2, §3, §4, §5

[8] = test system: IL-4 production by spleen cells; experiment: In vitro OVA-stimulated IL-4 production by spleen cells from OVA-sensitized mice; format: cell-based, mouse; settings: for Amount of IL-4: Table 16, OVA-stimulated IL-4 production, spleen cells, 96 hours, ELISA
Method: as §1

[9] = test system: SD rats; experiment: Acute toxicity LD50, intravenous injection; format: in vivo, rat
Method: The toxicity of the compounds of the present invention of the formula (I) is very low and therefore, the compounds may be considered safe for pharmaceutical use. For example, LD50 of 2-deoxy-2-[3S-(9-phenylnonanoyloxy)tetradecanoyl]-amino-3-O-(9-phenylnonanoyl)-4-O-sulfo-D-glucopyranose sodium salt (The compound (1) described hereinafter) is 60-70 mg/kg on SD rats were administrated by intravenous injection.

[10] = 0.3 to 30 μM, spleen cells from OVA-sensitized mice

SMILES: CCCCCCCCCCC[C@@H](CC(=O)N[C@H]1C(O)O[C@H](CO)[C@@H](OS(=O)(=O)[O-])[C@@H]1OC(=O)CCCCCCCCc1ccccc1)OC(=O)CCCCCCCCc1ccccc1.[Na+] (stereo partly drawn) [Compound (1), 2-deoxy-2-[3S-(9-phenylnonanoyloxy)tetradecanoyl]amino-3-O-(9-phenylnonanoyl)-4-O-sulfo-D-glucopyranose sodium]
- Increasing ratio of auricle thickness ([1]; 10 mg/kg i.v.): 16.4 ± 1.9%
- Increasing ratio of auricle thickness ([1]; 10 mg/kg p.o.): 14.3 ± 1.8%
- Inhibition of increase in the auricle thickness ([1]; 40 mg/kg oral administration, versus control): 45%
- Increasing ratio of auricle thickness ([1]; 40 mg/kg p.o.): 10.2% and 10.2 ± 1.6 %
- The number of times of scratching ([2]; 1 mg/kg intravenously): 68.6 ± 18.8
- The number of times of scratching ([2]; 3 mg/kg intravenously): 61.3 ± 9.9
- The number of times of scratching ([2]; 10 mg/kg intravenously): 26.8 ± 16.8
- The number of times of scratching ([2]; 30 mg/kg intravenously): 6.3 ± 4.4
- Effect on scratching behavior ([2]; 10 or 30 mg/kg intravenously): significantly reduced scratching behavior
- Amount of IL-2 ([3]; 0.3 μM): 48.4 ± 3.0 pg/mL
- Amount of IL-2 ([3]; 1 μM): 36.1 ± 5.0 pg/mL
- Amount of IL-2 ([3]; 3 μM): 22.9 ± 2.9 pg/mL
- Amount of IL-2 ([3]; 10 μM): 11.7 ± 2.2 pg/mL
- Amount of IL-2 ([3]; 30 μM): 4.3 ± 1.7 pg/mL
- Effect on in vitro OVA-stimulated IL-2 production [3, 10]: significantly inhibited
- The number of eosinophils in BALF ([4]; 10 mg/kg i.p.): 0.0 ± 0.0*^b × 10^5 cells/BALF
- The number of eosinophils in BALF ([4]; 10 mg/kg i.v.): 0.1 ± 0.0*^b × 10^5 cells/BALF
- The number of eosinophils in BALF ([4]; 10 mg/kg p.o.): 1.4 ± 0.4 × 10^5 cells/BALF
- The number of eosinophils in BALF ([4]; 30 mg/kg p.o.): 0.7 ± 0.2 × 10^5 cells/BALF
- The number of eosinophils in BALF ([4]; 100 mg/kg p.o.): 0.3 ± 0.1 × 10^5 cells/BALF
- Effect on in vitro OVA-stimulated IFN-γ production [5, 10]: significantly inhibited
- Amount of IFN-γ ([5]; 0.3 μM): 1462.9 ± 202.8 pg/mL
- Amount of IFN-γ ([5]; 1 μM): 658.1 ± 66.6 pg/mL
- Amount of IFN-γ ([5]; 3 μM): 457.6 ± 51.0 pg/mL
- Amount of IFN-γ ([5]; 10 μM): 349.7 ± 81.0 pg/mL
- Amount of IFN-γ ([5]; 30 μM): 160.5 ± 42.9 pg/mL
- Serum IgE antibody titer ([6]; 10 mg/kg i.p.): 69.3 ± 17.6***^b
- Serum IgE antibody titer ([6]; 10 mg/kg i.v.): 20.0 ± 3.7***^b
- Serum IgE antibody titer ([6]; 10 mg/kg p.o.): 304.0 ± 68.2
- Serum IgE antibody titer ([6]; 30 mg/kg p.o.): 176.0 ± 35.2
- Serum IgE antibody titer ([6]; 100 mg/kg p.o.): 120.0 ± 30.1
- Amount of IL-5 in BALF ([7]; 10 mg/kg i.p.): 9.2 ± 1.5**^b pg/BALF
- Amount of IL-5 in BALF ([7]; 10 mg/kg i.v.): 16.2 ± 3.8**^b pg/BALF
- Amount of IL-5 in BALF ([7]; 10 mg/kg p.o.): 65.1 ± 15.9 pg/BALF
- Amount of IL-5 in BALF ([7]; 30 mg/kg p.o.): 50.8 ± 13.7 pg/BALF
- Amount of IL-5 in BALF ([7]; 100 mg/kg p.o.): 26.7 ± 7.5 pg/BALF
- Effect on in vitro OVA-stimulated IL-4 production ([8]; 3 to 30 μM, spleen cells from OVA-sensitized mice): significantly inhibited
- Amount of IL-4 ([8]; 0.3 μM): 253.0 ± 45.9 pg/mL
- Amount of IL-4 ([8]; 1 μM): 203.3 ± 37.3 pg/mL
- Amount of IL-4 ([8]; 3 μM): 139.0 ± 19.3 pg/mL
- Amount of IL-4 ([8]; 10 μM): 67.9 ± 8.1 pg/mL
- Amount of IL-4 ([8]; 30 μM): 12.8 ± 1.1 pg/mL
- LD50 [9]: 60 to 70 mg/kg

Reference: patent US6495678B1, “Immunosuppressant containing glucopyranose derivative as active ingredient” (Ono Pharmaceutical Co., Ltd., priority 1998, dated 2002)
